Data: ChEMBL document CHEMBL1201862, “PubChem BioAssay data set” (2004)
“And” between values parts separate entries of the source, which are not always exact repeats. Identical values can stand only once.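 Step 1: Grow cells in 96-well plates. Step 2: Expose to compound for 48 hours at 5 concentrations. Step 3: Interpolate endpoints linearly; if unreached, use highest concentration. The concentration for 50% growth inhibition is given as GI50.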 The source made the active and inactive calls. Rule as the data show it: active = GI50 up to about 1.1 µM and inactive = higher.

Legend:
Experiment in all cases: NCI tumour cell line growth inhibition, 48 h
786-0 = test system: 786-0
A549 = test system: A549
BT-549 = test system: BT-549
EKVX = test system: EKVX
HOP-92 = test system: HOP-92
HT-29 = test system: HT-29
MDA-N = test system: MDA-N
MOLT-4 = test system: MOLT-4
NCI-H23 = test system: NCI-H23
NCI/ADR-RES = test system: NCI/ADR-RES
OVCAR-3 = test system: OVCAR-3
OVCAR-4 = test system: OVCAR-4
OVCAR-8 = test system: OVCAR-8
RPMI-8226 = test system: RPMI-8226
SNB-19 = test system: SNB-19
SNB-75 = test system: SNB-75
SW-620 = test system: SW-620
TK-10 = test system: TK-10
UACC-257 = test system: UACC-257
SK-MEL-2 = test system: SK-MEL-2

Measured: GI50

O=c1[nH]c2ccc(Cl)cc2o1
inactive: 786-0 > 100 µM | A549 > 100 µM | BT-549 > 100 µM | EKVX 26.7 µM | HOP-92 17.5 µM | HT-29 > 100 µM | MDA-N > 100 µM | MOLT-4 > 100 µM | NCI-H23 > 100 µM | NCI/ADR-RES > 100 µM | OVCAR-3 > 100 µM | OVCAR-4 > 100 µM | OVCAR-8 > 100 µM | RPMI-8226 > 100 µM | SNB-19 > 100 µM | SNB-75 > 100 µM | SW-620 > 100 µM | TK-10 > 100 µM | UACC-257 > 100 µM

Cc1ccc(S(=O)(=O)OCCC2CN(C(=O)OCc3ccccc3)C(C)(C)O2)cc1 (stereo not drawn)
inactive: 786-0 11.6 µM | A549 9.59 µM | BT-549 1.89 µM | EKVX 18.3 µM | HOP-92 62.2 µM | MDA-N 12.5 µM | MOLT-4 2.81 µM | NCI-H23 2.96 µM | NCI/ADR-RES 2.4 µM | OVCAR-3 39.6 µM | OVCAR-4 6.68 µM | OVCAR-8 4.2 µM | RPMI-8226 3.92 µM | SK-MEL-2 17.7 µM | SNB-19 3.83 µM | SW-620 14.3 µM | TK-10 8.75 µM | UACC-257 7.41 µM

CCCC(c1cc(C(C)(C)C)c(O)cc1C)c1cc(C(C)(C)C)c(O)cc1C
inactive: 786-0 2.31 µM | A549 2.99 µM | BT-549 9.79 µM | EKVX 2.88 µM | HOP-92 8.41 µM | HT-29 6.65 µM | MDA-N 1.87 µM | MOLT-4 2.16 µM | NCI-H23 2.65 µM | NCI/ADR-RES 3.4 µM | OVCAR-3 1.81 µM | OVCAR-4 5.13 µM | OVCAR-8 4.03 µM | RPMI-8226 2.24 µM | SK-MEL-2 2.6 µM | SNB-19 4.99 µM | SW-620 3.23 µM | TK-10 3.2 µM | UACC-257 2.31 µM

CCC1C(C#N)=C(N)OC2=C1C(=O)CC(C)(C)C2 (stereo not drawn)
inactive: 786-0 > 100 µM | A549 > 100 µM | BT-549 > 100 µM | EKVX > 100 µM | HOP-92 > 100 µM | HT-29 > 100 µM | MDA-N > 100 µM | MOLT-4 > 100 µM | NCI-H23 > 100 µM | NCI/ADR-RES > 100 µM | OVCAR-3 > 100 µM | OVCAR-4 > 100 µM | OVCAR-8 > 100 µM | RPMI-8226 > 100 µM | SK-MEL-2 > 100 µM | SNB-19 > 100 µM | SW-620 > 100 µM | TK-10 > 100 µM | UACC-257 35.9 µM

CSc1nc(C#N)c(N)n1C
inactive: 786-0 > 100 µM | A549 > 100 µM | BT-549 > 100 µM | EKVX > 100 µM | HOP-92 > 100 µM | MDA-N > 100 µM | MOLT-4 > 100 µM | NCI-H23 > 100 µM | NCI/ADR-RES > 100 µM | OVCAR-3 > 100 µM | OVCAR-4 > 100 µM | OVCAR-8 > 100 µM | RPMI-8226 > 100 µM | SK-MEL-2 > 100 µM | SNB-19 > 100 µM | SW-620 > 100 µM | TK-10 > 100 µM | UACC-257 > 100 µM

C=C(C)CCC(O)[C@](C)(O)[C@H]1[C@H](O)C[C@@]2(C)[C@@H]3CCc4c(cc(OC5OC(CO)C(O)C(O)C5O)c(O)c4C)C3(C)C(=O)C[C@]12C (stereo partly drawn)
inactive: 786-0 > 100 µM | A549 > 100 µM | BT-549 > 100 µM | EKVX > 100 µM | HOP-92 > 100 µM | HT-29 > 100 µM | MDA-N > 100 µM | MOLT-4 > 100 µM | NCI-H23 > 100 µM | NCI/ADR-RES > 100 µM | OVCAR-3 > 100 µM | OVCAR-4 > 100 µM | OVCAR-8 > 100 µM | SK-MEL-2 > 100 µM | SNB-19 > 100 µM | SNB-75 > 100 µM | SW-620 > 100 µM | TK-10 > 100 µM | UACC-257 > 100 µM

COC(=O)[C@]12CCC(=O)N1[C@H](C(=O)O)Cc1c2[nH]c2ccccc12
inactive: 786-0 > 100 µM | A549 > 100 µM | BT-549 > 100 µM | EKVX > 100 µM | HOP-92 > 100 µM | HT-29 > 100 µM | MDA-N > 100 µM | MOLT-4 > 100 µM | NCI-H23 > 100 µM | NCI/ADR-RES > 100 µM | OVCAR-3 > 100 µM | OVCAR-4 > 100 µM | OVCAR-8 > 100 µM | SK-MEL-2 > 100 µM | SNB-19 > 100 µM | SNB-75 > 100 µM | SW-620 > 100 µM | TK-10 > 100 µM | UACC-257 > 100 µM

O=C1CCC(=O)N1CNc1ccc2c(c1)Sc1ccccc1O2
inactive: 786-0 23.6 µM | A549 33 µM | BT-549 26.6 µM | EKVX 22 µM | HOP-92 21.5 µM | HT-29 23.5 µM | MDA-N 30.2 µM | MOLT-4 61.7 µM | NCI-H23 38.5 µM | NCI/ADR-RES 42.9 µM | OVCAR-3 26.5 µM | OVCAR-4 33.7 µM | OVCAR-8 25.9 µM | RPMI-8226 33.9 µM | SK-MEL-2 18.1 µM | SNB-19 67.3 µM | SW-620 27.9 µM | TK-10 38 µM | UACC-257 46.7 µM

Cc1c2c(n3c(nc4ccccc43)c1C#N)NCC2
inactive: 786-0 > 10 µM | A549 > 10 µM | BT-549 > 10 µM | EKVX > 10 µM | HOP-92 > 10 µM | HT-29 > 10 µM | MDA-N > 10 µM | MOLT-4 > 10 µM | NCI-H23 > 10 µM | NCI/ADR-RES > 10 µM | OVCAR-3 > 10 µM | OVCAR-4 > 10 µM | OVCAR-8 > 10 µM | RPMI-8226 > 10 µM | SNB-19 > 10 µM | SNB-75 > 10 µM | SW-620 > 10 µM | TK-10 > 10 µM | UACC-257 > 10 µM

c1ccc2[nH]c(-c3cscn3)nc2c1 [THIABENDAZOLE]
inactive: 786-0 > 100 µM | A549 > 100 µM | BT-549 > 100 µM | EKVX > 100 µM | HOP-92 > 100 µM | HT-29 > 100 µM and 77.1 µM | MDA-N 50.4 µM | MOLT-4 > 100 µM | NCI-H23 > 100 µM | NCI/ADR-RES > 100 µM | OVCAR-3 > 100 µM | OVCAR-4 > 100 µM | OVCAR-8 > 100 µM | SK-MEL-2 > 100 µM | SNB-19 > 100 µM | SNB-75 > 100 µM | SW-620 > 100 µM | TK-10 > 100 µM | UACC-257 > 100 µM
